The values below come from EP0408782A1, “Antihypoxic agent” (NAUCHNOISSLEDOVATELSKI CHIMIKOPHARMATZEVTICHEN INSTITUT, priority 1989, dated 1991).

Molecules are shown by their SMILES. Like-named read-outs stand apart in the source and are kept apart here.

Data set [1] has as its system mice. Kind of data set: hypobaric hypoxia in mice (survival time in decompression chamber, 210 mmHg). The following applies: 1 hour before the hypoxia. It is filed as in vivo, white mice line H. As for the experimental part: EXAMPLE 1: Pharmacological study: Cerebro-protective anti-hypoxic effect using the method "hypobaric hypoxia" in mice. The experiments are carried out on white mice line H (18-22 g) in groups of 8 animals. […] The survival time (in seconds) from the beginning of the hypoxia till the death of the animals was measured. The results were calculated as a percentage towards the control group. […]

Data set [2] has as its system mice. Put plainly: complete ischaemia by decapitation in mice (duration of respiratory movements of the isolated head). The format is in vivo, white mice line H. The following applies: 1 hour before. The procedure:
Example 2. Pharmacological study of the cerebro-protective anti-ischaemic effect using the method of"complete ischaemia by decapitation" in mice. The experiments are carried out on white mice line H (18-22g) in groups of 8 animals. Complete […] caused by means of a decapitation of the animals using the method of Hollowach-Thurston et al.(9). The duration of the respiratory movements of the isolated head (in seconds) was measured. The results are calculated as a percentage towards the control group. […]

Data set [3] concerns mice. The following applies: mouse, in vivo.
A short description of another data set: in vivo. The following applies: mouse.

What is called LD50 is the dose expected to kill half of the subjects tested. As for `Fc1ccc(C(c2ccc(F)cc2)N2CCN(C/C=C/c3ccccc3)CC2)cc1` [Flunarizine], the “Increase of the resistancy towards hypoxia (% towards the control group)” value in the data set with mice [1] (10 mg/kg intraperitoneally) is 11,7%. The “Increase of the resistance towards ischaemia (% towards the control group)” value in the data set on mice [2] (10 mg/kg intraperitoneally) is 42,8%. Also, the LD₅₀ in the data set with mice [3] (ip) is 204/158+264/ mg/kg; in the data set on mice [3] (po), 232/182+295/ mg/kg. Further, the values for the LD50 in the data set “in vivo” (ip) and in “in vivo” (po) were 204 mg/kg and 232 mg/kg, respectively.
Consider `NC(=O)CN1CCCC1=O` [Piracetam, 2-oxo-1-pyrrolidineacetamide], for which, in the data set with mice [1] (1600 mg/kg intraperitoneally), the “Increase of the resistancy towards hypoxia (% towards the control group)” value is recorded as 22,8%. In addition, the “Increase of the resistance towards ischaemia (% towards the control group)” value with mice [2] (1600 mg/kg intraperitoneally) is listed as 27,9%. Further, the median lethal dose (LD50) in “in vivo” (ip) and in “in vivo” (po) was 8000 mg/kg throughout.
